The source of these data is ChEMBL document CHEMBL4382217 (Bioorg Med Chem, 2018).

For data set [1], the system named is NCI-H1975. The data set is described as follows: Antiproliferative activity against human NCI-H1975 cells harboring EGFR T790M/L858R double mutant after 72 hrs by MTS assay. The data set is classed as functional, cell-based. The settings on record: Homo sapiens, NCI-H1975, 72 h.
Data set [2] in a line: (§1) Antiproliferative activity against human A431 cells harboring WT EGFR after 72 hrs by MTS assay. The data set is classed as cell-based, A-431. The settings on record: human, A431 cells harboring WT EGFR.
A short description of data set [3]: Selectivity index, ratio of GI50 for human A431 cells harboring WT EGFR to GI50 for human NCI-H1975 cells harboring EGFR T790M/L858R double mutant.
The nature of data set [4]: Drug level in human liver microsomes treated with N-(2-((2-(Dimethylamino)ethyl)(methyl)amino)-4-methoxy-5-((4-(1-methyl-1H-pyrrolo[3,2-b]pyridin-3-yl)pyrimidin-2-yl)amino)phenyl)acrylamide by LC-MS/MS analysis. Type of data set: ADME, Microsome.
In data set [5] the test system is A-431. The data set is described as §1. The settings on record: Homo sapiens, A-431, 72 h. The data set is classed as cell-based.
The subject of data set [6] is PC-9. The data set is described as follows: Antiproliferative activity against human PC9 cells harboring EGFR mutant after 72 hrs by MTS assay. The note with it: PC-9, 72 h. The data set is classed as functional, cell-based.
The test system of data set [7] is HCC827. Briefly: Antiproliferative activity against human HCC827 cells harboring EGFR mutant after 72 hrs by MTS assay. The data set is classed as functional, cell-based. The note with it: HCC827, 72 h.
Data set [8] relates to Calu-3. The data set is described as follows: Antiproliferative activity against human Calu3 cells harboring WT EGFR after 72 hrs by MTS assay. Type of data set: cell-based. The settings on record: Calu-3, 72 h.
Data set [9] concerns Calu-6. Briefly: Antiproliferative activity against human Calu6 cells harboring WT EGFR after 72 hrs by MTS assay. The data set is classed as cell-based. The settings on record: Calu-6, 72 h.
Data set [10] deals with Epidermal growth factor receptor (Homo sapiens, UniProt P00533, L858R/T790M). Briefly: Inhibition of recombinant human N-terminal GST-tagged EGFR T790M/L858R double mutant (696-end residues) by fluorescence assay.
Sequence of Epidermal growth factor receptor (Homo sapiens, UniProt P00533, L858R/T790M) (P00533 25-1210 T790M/L858R limits assumed): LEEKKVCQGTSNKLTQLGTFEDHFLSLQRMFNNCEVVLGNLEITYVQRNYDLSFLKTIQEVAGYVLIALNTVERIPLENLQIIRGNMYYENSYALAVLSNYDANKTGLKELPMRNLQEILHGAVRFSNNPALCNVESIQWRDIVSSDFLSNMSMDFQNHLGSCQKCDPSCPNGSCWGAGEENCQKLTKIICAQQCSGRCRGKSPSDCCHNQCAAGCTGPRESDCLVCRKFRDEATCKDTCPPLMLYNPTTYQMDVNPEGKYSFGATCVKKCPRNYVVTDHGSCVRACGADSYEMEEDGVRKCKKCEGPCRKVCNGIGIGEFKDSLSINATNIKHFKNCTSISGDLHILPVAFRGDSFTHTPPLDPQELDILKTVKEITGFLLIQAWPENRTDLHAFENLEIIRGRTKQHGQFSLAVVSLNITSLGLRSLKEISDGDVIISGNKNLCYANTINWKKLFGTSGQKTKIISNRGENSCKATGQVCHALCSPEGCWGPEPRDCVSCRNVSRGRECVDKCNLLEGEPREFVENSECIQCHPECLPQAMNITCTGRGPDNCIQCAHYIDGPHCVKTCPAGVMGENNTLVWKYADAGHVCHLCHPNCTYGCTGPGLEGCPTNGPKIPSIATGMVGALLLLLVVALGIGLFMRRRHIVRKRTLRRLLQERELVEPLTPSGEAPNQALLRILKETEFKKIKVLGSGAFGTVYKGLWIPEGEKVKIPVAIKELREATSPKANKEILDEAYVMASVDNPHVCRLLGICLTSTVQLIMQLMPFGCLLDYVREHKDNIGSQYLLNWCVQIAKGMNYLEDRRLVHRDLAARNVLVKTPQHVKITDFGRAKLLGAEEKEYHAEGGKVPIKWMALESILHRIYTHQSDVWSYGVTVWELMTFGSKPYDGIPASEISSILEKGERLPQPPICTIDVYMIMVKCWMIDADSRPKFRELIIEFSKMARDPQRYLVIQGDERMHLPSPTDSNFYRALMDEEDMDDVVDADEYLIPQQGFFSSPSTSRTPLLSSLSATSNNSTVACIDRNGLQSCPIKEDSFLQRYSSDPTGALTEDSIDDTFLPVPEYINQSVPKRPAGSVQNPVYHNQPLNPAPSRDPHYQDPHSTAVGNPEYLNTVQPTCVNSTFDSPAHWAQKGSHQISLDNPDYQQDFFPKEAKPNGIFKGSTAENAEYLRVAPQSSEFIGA
The target in data set [11] is Epidermal growth factor receptor (Homo sapiens, UniProt P00533, L858R). Briefly: Inhibition of recombinant human GST-tagged EGFR L858R mutant expressed in baculovirus expression system by fluorescence assay.
Sequence of Epidermal growth factor receptor (Homo sapiens, UniProt P00533, L858R) (P00533 25-1210 L858R limits assumed): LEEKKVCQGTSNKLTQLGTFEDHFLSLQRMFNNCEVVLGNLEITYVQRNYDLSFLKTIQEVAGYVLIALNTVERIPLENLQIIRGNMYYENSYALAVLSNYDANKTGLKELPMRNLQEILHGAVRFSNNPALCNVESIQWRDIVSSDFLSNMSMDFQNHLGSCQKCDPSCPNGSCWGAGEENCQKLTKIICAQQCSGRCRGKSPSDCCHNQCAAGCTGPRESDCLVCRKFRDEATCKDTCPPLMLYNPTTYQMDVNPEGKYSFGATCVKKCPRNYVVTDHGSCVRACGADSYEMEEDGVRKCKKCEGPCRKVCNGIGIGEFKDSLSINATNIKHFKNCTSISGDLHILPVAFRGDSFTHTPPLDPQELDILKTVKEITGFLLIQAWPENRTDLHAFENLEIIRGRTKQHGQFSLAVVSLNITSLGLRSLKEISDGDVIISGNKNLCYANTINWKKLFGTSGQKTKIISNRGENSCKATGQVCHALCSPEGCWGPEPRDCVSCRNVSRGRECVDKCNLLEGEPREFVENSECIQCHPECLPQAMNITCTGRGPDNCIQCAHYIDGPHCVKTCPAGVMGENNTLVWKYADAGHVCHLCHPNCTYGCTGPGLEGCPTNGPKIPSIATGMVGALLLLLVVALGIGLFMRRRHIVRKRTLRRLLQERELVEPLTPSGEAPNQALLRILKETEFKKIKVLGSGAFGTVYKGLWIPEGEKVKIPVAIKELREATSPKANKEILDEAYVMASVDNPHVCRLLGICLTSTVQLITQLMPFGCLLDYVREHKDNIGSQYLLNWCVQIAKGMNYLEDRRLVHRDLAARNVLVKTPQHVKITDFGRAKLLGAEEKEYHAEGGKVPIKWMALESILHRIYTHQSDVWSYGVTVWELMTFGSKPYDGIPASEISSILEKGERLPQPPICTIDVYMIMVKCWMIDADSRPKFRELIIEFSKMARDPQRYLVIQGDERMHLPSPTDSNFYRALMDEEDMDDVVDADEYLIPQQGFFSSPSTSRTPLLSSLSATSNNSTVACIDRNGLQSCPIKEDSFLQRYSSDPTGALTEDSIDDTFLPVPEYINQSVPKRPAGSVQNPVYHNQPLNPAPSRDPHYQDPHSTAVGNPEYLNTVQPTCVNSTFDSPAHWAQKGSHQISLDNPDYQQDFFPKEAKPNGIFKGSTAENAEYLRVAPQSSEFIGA
For data set [12], the target named is Epidermal growth factor receptor (Homo sapiens, UniProt P00533). The data set is described as follows: Inhibition of recombinant human N-terminal GST-tagged EGFR (696-end residues) expressed in baculovirus expression system using Srctide as substrate by fluorescence assay.
Sequence of Epidermal growth factor receptor (Homo sapiens, UniProt P00533) (P00533 whole entry): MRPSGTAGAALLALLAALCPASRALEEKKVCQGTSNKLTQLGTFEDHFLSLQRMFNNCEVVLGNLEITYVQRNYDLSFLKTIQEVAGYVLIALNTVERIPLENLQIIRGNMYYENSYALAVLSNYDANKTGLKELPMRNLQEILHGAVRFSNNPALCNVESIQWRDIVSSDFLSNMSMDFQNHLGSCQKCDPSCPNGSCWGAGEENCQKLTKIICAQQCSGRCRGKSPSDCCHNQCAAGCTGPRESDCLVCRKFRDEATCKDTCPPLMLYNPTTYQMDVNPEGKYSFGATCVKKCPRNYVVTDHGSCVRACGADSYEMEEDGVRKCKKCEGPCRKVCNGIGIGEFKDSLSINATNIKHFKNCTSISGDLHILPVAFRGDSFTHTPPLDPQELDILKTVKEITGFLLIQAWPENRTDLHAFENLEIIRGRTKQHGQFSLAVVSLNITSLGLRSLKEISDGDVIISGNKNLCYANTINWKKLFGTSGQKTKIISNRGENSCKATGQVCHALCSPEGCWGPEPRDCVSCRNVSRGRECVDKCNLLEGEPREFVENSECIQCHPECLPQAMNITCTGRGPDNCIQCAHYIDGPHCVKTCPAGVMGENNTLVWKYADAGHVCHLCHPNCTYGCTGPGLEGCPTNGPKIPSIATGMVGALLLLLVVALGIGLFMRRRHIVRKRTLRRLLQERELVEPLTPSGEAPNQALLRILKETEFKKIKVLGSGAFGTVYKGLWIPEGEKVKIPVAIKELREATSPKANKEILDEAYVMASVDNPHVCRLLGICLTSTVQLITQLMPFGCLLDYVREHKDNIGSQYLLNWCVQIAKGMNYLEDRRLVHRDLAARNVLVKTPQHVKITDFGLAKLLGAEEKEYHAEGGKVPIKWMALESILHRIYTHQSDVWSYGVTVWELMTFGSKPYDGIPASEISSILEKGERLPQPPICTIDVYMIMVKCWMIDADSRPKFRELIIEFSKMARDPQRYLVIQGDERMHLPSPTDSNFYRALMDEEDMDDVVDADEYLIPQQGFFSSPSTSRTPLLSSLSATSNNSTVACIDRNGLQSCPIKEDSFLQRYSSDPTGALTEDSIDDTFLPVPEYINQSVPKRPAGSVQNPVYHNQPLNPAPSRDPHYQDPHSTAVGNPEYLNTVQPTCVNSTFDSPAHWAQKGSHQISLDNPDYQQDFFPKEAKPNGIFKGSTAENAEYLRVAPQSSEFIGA
For data set [13], the species on record is Homo sapiens. The data set is described as follows: Selectivity index, ratio of IC50 for recombinant human N-terminal GST-tagged EGFR (696-end residues) expressed in baculovirus expression system to IC50 for recombinant human N-terminal GST-tagged EGFR T790M/L858R double mutant (696-end residues).

In turn, `C=CC(=O)Nc1cc(Nc2nccc(-c3noc4ccccc34)n2)c(OC(F)F)cc1N1CCN(C)CC1` returned a GI50 in data set [1] of 0.049 µM. Besides, in data set [2], the GI50 at 72 h was 1.72 µM. Also, the RatioGI50 in [3] is on record as 35.1.

In turn, `C=CC(=O)Nc1cc(Nc2nccc(-c3nn(C)c4ccsc34)n2)c(OC)cc1N(C)CCN(C)C` registered a 50% growth inhibitory concentration (GI50) in data set [1] of 0.0107 µM. For the same molecule, in data set [2], the GI50 at 72 h came to 0.209 µM. In data set [3], the RatioGI50 came out at 19.5.

On to `C=CC(=O)Nc1cc(Nc2nccc(-c3cn(C)c4cccnc34)n2)c(OC(F)F)cc1N1CCC[C@H]1CN(C)C`, for which, in [1], halving of growth (GI50) required 0.184 µM. The molecule further displayed a GI50 at 72 h in data set [2] of 0.724 µM. Moreover, in data set [3], the RatioGI50 is reported as 3.9.

`C=CC(=O)Nc1cc(Nc2nccc(-c3cn(C)c4cccnc34)n2)c(OC)cc1N1CCC[C@H]1CN(C)C` had a GI50 in data set [1] of 2.88 µM. Moreover, the GI50 at 72 h in data set [2] amounted to 2.1 µM. In [3], the RatioGI50 is 0.7.

On to `C=CC(=O)Nc1cc(Nc2nccc(-c3cn(C)c4cccnc34)n2)c(OC)cc1NCCN(C)C`, for which the Drug metabolism result in [4] is “Metabolite_Detected”. For the same molecule, the IC50 was 0.79 µM in data set [1]; 6.78 µM in data set [5]; 0.74 µM in [6]; 0.075 µM in data set [7]; > 10 µM in data set [8]; > 10 µM in [9]. The IC50 in data set [10] was 15 µM; in data set [11] it was 12 µM; in data set [12], 77 µM. Also, the Ratio IC50 in data set [13] turned out to be 5.1.

Turning to `C=CC(=O)Nc1cc(Nc2nccc(-c3cn(C)c4cccnc34)n2)c(OC)cc1N1CCN(C)CC1`, the GI50 in [1] was 0.175 µM. Moreover, in data set [2], it took 1.56 µM to inhibit growth by half (GI50 at 72 h). Besides, the RatioGI50 in data set [3] was found to be 8.9.

`C=CC(=O)Nc1cc(Nc2nccc(-c3noc4ccccc34)n2)c(OC)cc1N(C)CCN(C)C` showed a GI50 in data set [1] of 0.0073 µM. In data set [2], this molecule came in with a GI50 at 72 h of 0.11 µM. Moreover, in data set [3], the RatioGI50 was 15.1.

In data set [1], `C=CC(=O)Nc1cc(Nc2nccc(-c3noc4ccccc34)n2)c(OC)cc1N1CCC[C@H]1CN(C)C` returned a GI50 of 0.844 µM. For the same molecule, the GI50 at 72 h in [2] was > 10 µM. Besides, in [3], the RatioGI50 is >75.1.

As to `C=CC(=O)Nc1cc(Nc2nccc(-c3noc4ccccc34)n2)c(OC(F)F)cc1N(C)CCN(C)C`, the GI50 in data set [1] stood at 0.004 µM. In addition, in data set [2], the GI50 at 72 h was determined as 0.0891 µM. Also, the RatioGI50 in data set [3] is 22.3.

On to `C=CC(=O)Nc1cc(Nc2nccc(-c3noc4ccccc34)n2)c(OC)cc1N1CCN(C)CC1`, for which halving of growth in data set [1] (GI50) required 0.168 µM. Also, in data set [2], the GI50 at 72 h was 0.728 µM. For the same molecule, the RatioGI50 in data set [3] is listed as 4.3.

With `C=CC(=O)Nc1cc(Nc2nccc(-c3cn(C)c4cccnc34)n2)c(OC(F)F)cc1N1CCN(C)CC1`, the GI50 in [1] is 0.166 µM. Besides, in data set [2], growth was halved (GI50 at 72 h) at 1.44 µM. Further, in [3], the RatioGI50 worked out at 8.7.

`C=CC(=O)Nc1cc(Nc2nccc(-c3nn(C)c4ccsc34)n2)c(OC(F)F)cc1N1CCN(C)CC1` gave a GI50 in data set [1] of 0.296 µM. Further, in [2], the GI50 at 72 h was 1.13 µM. For the same molecule, the RatioGI50 in data set [3] is given as 3.8.

For the molecule `C=CC(=O)Nc1cc(Nc2nccc(-c3noc4ccccc34)n2)c(OC(F)F)cc1N1CCC[C@H]1CN(C)C`, halving of growth in data set [1] (GI50) required 0.285 µM. In addition, in [2], growth was halved (GI50 at 72 h) at 1 µM. Moreover, in data set [3], the RatioGI50 was found to be 3.5.

`C=CC(=O)Nc1cc(Nc2nccc(-c3nn(C)c4ccsc34)n2)c(OC(F)F)cc1N(C)CCN(C)C`: the GI50 in data set [1] was found to be 0.0065 µM. This molecule also registered a GI50 at 72 h in data set [2] of 0.0858 µM. For the same molecule, the RatioGI50 in [3] came to 13.2.

`C=CC(=O)Nc1cc(Nc2nccc(-c3cn(C)c4cccnc34)n2)c(OC(F)F)cc1N(C)CCN(C)C` displayed a 50% growth inhibitory concentration (GI50) in [1] of 0.0067 µM. The same molecule yielded a GI50 at 72 h in [2] of 0.296 µM. The RatioGI50 in [3] is recorded as 44.1.

For the molecule `C=CC(=O)Nc1cc(Nc2nccc(-c3cn(C)c4cccnc34)n2)c(OC)cc1N(C)CCNC`, the Drug metabolism entry in [4] is recorded as “Metabolite_Detected”. Moreover, the IC50 was 0.27 µM in [1]; 3.47 µM in data set [5]; 0.33 µM in data set [6]; 0.042 µM in [7]; > 10 µM in [8]; > 10 µM in data set [9]. Further, the IC50 turned out to be 6.6 µM in data set [10], 12 µM in data set [11] and 277 µM in data set [12]. Also, in data set [13], the Ratio IC50 came out at 42.
